Legend:
[1] = molecular target: T1, HRP (Armoracia rusticana, UniProt P00433); assay: Inhibition of 1 mU of HRP activity using heavy metal salts and other compounds as stop reagents (ABTS, 96-well plate); details: 1 mU HRP; for Absorbance at 405 nm: higher concentration of Table 1
T1 sequence (P00433 31-338): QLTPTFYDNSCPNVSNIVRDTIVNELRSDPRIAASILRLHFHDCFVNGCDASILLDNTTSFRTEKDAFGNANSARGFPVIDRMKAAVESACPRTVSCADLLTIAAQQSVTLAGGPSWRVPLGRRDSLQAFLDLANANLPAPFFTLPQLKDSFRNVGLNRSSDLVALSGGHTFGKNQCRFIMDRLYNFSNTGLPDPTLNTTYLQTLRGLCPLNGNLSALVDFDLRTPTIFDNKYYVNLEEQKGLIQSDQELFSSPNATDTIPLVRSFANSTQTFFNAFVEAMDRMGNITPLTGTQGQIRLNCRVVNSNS

[2] = tested on: horseradish peroxidase (HRP); assay: Inhibition of ABTS turnover catalyzed by a low amount of HRP (sandwich ELISA, non-induced Jurkat cell lysate); format: biochemical, horseradish (Armoracia rusticana); details: SDS 1% or 5%, high concentrations of oxalic acid or sulfuric acid
Procedure: FIG. 1, A and B: inhibition of ABTS turnover catalyzed by a low amount of HRP (detection of a low amount of mono- and oligosomes in Jurkat cells; further details are given in Example 1). The ordinate indicates absorbance. Groups of bars represent comparative measurements at time points after the addition of stop reagents as indicated: (‡)—control, ABTS solution incubated without HRP, no stop reagent added; (a) to (k)—ABTS solution incubated with HRP and subsequently mixed with stop reagent as indicated: […] Jurkat cells were cultured and subsequently divided into two culture dishes. In one dish the cells were treated with 1 μg/ml CAM (Camptothecin) to induce apoptosis, thereby leading to the formation of mono and oligonucleosomes, the target antigen. After an incubation period of 4 hours the cells of both dishes were harvested separately by centrifugation, lysed by the detergent contained in the Cell Death Detection ELISA Plus (Roche Diagnostics GmbH, Mannheim, Germany; Catalog No. 1920685), and frozen. The mono and oligonucleosomes consisting of DNA and histones H2A, H2B, H3 and H4 were detected in thawed cell homogenate by way of a sandwich ELISA. Antigen was captured with a first monoclonal antibody against histone from the Cell Death Detection ELISA Plus kit. The antibody was coated onto the walls of a 96-well microplate. The detection antibody was a DNA-specific polyclonal antibody conjugated with horseradish peroxidase. Non-induced and CAM-induced Jurkat cells yielded low and high amounts of target antigen, thereby leading to low and high absolute amounts of horseradish peroxidase enzymatic activity in the respective wells. Into each well of the 96-well microplate an aliquot of 100 μl of ABTS Solution (Roche Diagnostics GmbH, Mannheim, Germany; Roche Applied Science, product no. 11684302001) was added. After an incubation for 8 minutes at room temperature, 100 μl of either distilled water or a stop reagent as indicated in the legend to FIG. 1 was added.

[3] = tested on: HRP; assay: Inhibition of 1 mU of HRP activity using acidified SDS solution as stop reagent (ABTS); format: biochemical, horseradish (Armoracia rusticana); details: acidification of the reaction mixture to pH about 2.5 to 4.2; SDS final concentration between 0.25% and 2.5% weight by volume
Procedure: A solution of 5% [w/v] sodium dodecyl sulfate acidified with 0.25 M hydrochloric acid was used as a stop reagent to inhibit 1 mU peroxidase enzymatic activity of HRP. […] 100 μl of stop reagent were added.
Another experiment was performed in which two different SDS concentrations, 5% and 0.5% [w/v] in an acidified solution were compared.

[4] = tested on: horseradish peroxidase (HRP); assay: Inhibition of ABTS turnover catalyzed by a high amount of HRP (sandwich ELISA, CAM-induced Jurkat cell lysate); format: biochemical, horseradish (Armoracia rusticana)
Procedure: FIG. 2, A and B: inhibition of ABTS turnover catalyzed by a high amount of HRP detection of a high amount of mono- and oligosomes in Jurkat cells; further details are given in Example 1. All other designations are the same as in FIG. 1. Jurkat cells were cultured and subsequently divided into two culture dishes. In one dish the cells were treated with 1 μg/ml CAM (Camptothecin) to induce apoptosis, thereby leading to the formation of mono and oligonucleosomes, the target antigen. After an incubation period of 4 hours the cells of both dishes were harvested separately by centrifugation, lysed by the detergent contained in the Cell Death Detection ELISA Plus (Roche Diagnostics GmbH, Mannheim, Germany; Catalog No. 1920685), and frozen. The mono and oligonucleosomes consisting of DNA and histones H2A, H2B, H3 and H4 were detected in thawed cell homogenate by way of a sandwich ELISA. Antigen was captured with a first monoclonal antibody against histone from the Cell Death Detection ELISA Plus kit. The antibody was coated onto the walls of a 96-well microplate. The detection antibody was a DNA-specific polyclonal antibody conjugated with horseradish peroxidase. Non-induced and CAM-induced Jurkat cells yielded low and high amounts of target antigen, thereby leading to low and high absolute amounts of horseradish peroxidase enzymatic activity in the respective wells. […]

[5] = Table 2b, 6 min, stop reagent added after 8 min incubation
[6] = Table 2b, 9 min, stop reagent added after 8 min
[7] = Table 2b, 15 min, stop reagent added after 8 min
[8] = Table 2b, 30 min, stop reagent added after 8 min
[9] = Table 2b, 45 min, stop reagent added after 8 min
[10] = Table 2b, 60 min, stop reagent added after 8 min
[11] = Table 2b, 180 min, stop reagent added after 8 min

SMILES | Absorbance at 405 nm [1, 5] | Absorbance at 405 nm [1, 6] | Absorbance at 405 nm [1, 7] | Absorbance at 405 nm [1, 8] | Absorbance at 405 nm [1, 9] | Absorbance at 405 nm [1, 10] | Absorbance at 405 nm [1, 11] | Decoloration of the dye ([1]; ABTS) | Inhibition of the reaction (FIG. 1) [2] | further results
[F-].[Na+] [(viii), NaF] | 1.176 | 1.343 | 1.424 | 1.572 | 1.721 | 1.818 | 2.107 |  |  | Inhibition of HRP (in words) ([1]; ABTS): affected inhibition, however only partially
N#C[S-].[K+] [(xii), KSCN] | 1.179 | 1.207 | 1.290 | 1.201 | 1.086 | 0.989 | 0.849 | decoloration of the dye |  | 
NC(=O)C(=O)[O-].[Na+] [(xi), Sodium Oxamate] | 1.182 | 1.776 | 2.525 | 3.091 | 3.097 | 3.095 | 2.865 |  |  | 
[Cl][Ni][Cl] [(ix), Nickel (II) chloride] | 1.175 | 2.241 | 2.999 | 3.719 | 3.999 | 3.715 | 3.999 |  |  | 
[Na+].[Na+].[Na+].[O]=[V]([O-])([O-])[O-] [(vii), Sodium orthovanadate] | 1.173 | 0.115 | 0.096 | 0.089 | 0.088 | 0.092 | 0.100 | decoloration of the dye |  | 
[Na+].[OH-] [(xiii), NaOH] |  |  |  |  |  |  |  | decoloration of the dye |  | Absorbance at 405 nm ([1]; Table 2a, 6 min, stop reagent added after 8 min incubation): 1.036; Absorbance at 405 nm ([1]; Table 2a, 9 min, stop reagent added after 8 min): 0.878; Absorbance at 405 nm ([1]; Table 2a, 15 min, stop reagent added after 8 min): 0.027; Absorbance at 405 nm ([1]; Table 2a, 30 min, stop reagent added after 8 min): 0.027; Absorbance at 405 nm ([1]; Table 2a, 45 min, stop reagent added after 8 min): 0.027; Absorbance at 405 nm ([1]; Table 2a, 60 min, stop reagent added after 8 min): 0.027; Absorbance at 405 nm ([1]; Table 2a, 180 min, stop reagent added after 8 min): 0.026
CCCCCCCCCCCCOS(=O)(=O)[O-].[Na+] [SDS, sodium dodecyl sulfate] |  |  |  |  |  |  |  |  | complete inhibition | Inhibiting peroxidase enzymatic activity (in words) [3]: very effective; Inhibition of the high amount of HRP activity (FIG. 2) [4]: not able to inhibit completely
O=C(O)C(=O)O [oxalic acid] |  |  |  |  |  |  |  |  | complete inhibition | Inhibition of the high amount of HRP activity (FIG. 2) [4]: not able to inhibit completely
O=S(=O)(O)O [sulfuric acid] |  |  |  |  |  |  |  |  | complete inhibition | 
